The source of these data is patent US9580463B2 (BRISTOL-MYERS SQUIBB COMPANY, priority 2013, dated 2017).

The experiment concerns HCV genotype 1b (Con1) replicon in HUH-7 cells. The experiment in a line: HCV replicon luciferase reporter assay, genotype 1b. The class given is cell-based. Particulars: Hepatitis C virus, 72 h, genotype 1b replicon, 3 days incubation, read-out: LE_1b (EC50, range). An excerpt: An HCV replicon whole cell system was established as described by Lohmann V, Korner F, Koch J, Herian U, Theilmann L, Bartenschlager R., Science 285(5424):110-3 (1999) and modified to introduce a luciferase reporter, as first described by Krieger et al (Krieger N, Lohmann V, and Bartenschlager R, J. Virol. 75(10):4614-4624 (2001)). CDNA encoding a humanized form of the Renilla luciferase gene and a linker sequence fused directly to the 3′-end of the luciferase gene were introduced into the replicon construct using an Asc1 restriction site located in core, directly upstream of the neomycin marker gene. The adaptive mutation at position 1179 (serine to isoleucine) was also introduced (Blight K J, Kolykhalov, A A, Rice, C M, Science 290(5498):1972-1974). A stable cell line constitutively expressing this HCV replicon construct was generated by first linearizing plasmid DNAs with ScaI. RNA transcripts were synthesized in vitro using the T7 MegaScript transcription kit (Ambion, Austin, Tex.) according to manufacturer's directions. In vitro transcripts of the cDNA were transfected into the human hepatoma cell line, HUH-7. […] Resulting cell lines were characterized for positive and negative strand RNA production and protein production over time. […]
HCV replicon luciferase assays were developed to monitor the inhibitory effects of compounds described in the disclosure on HCV genotypes 1a and 1b viral replication. HUH-7 cells, constitutively expressing the HCV replicon, were grown in Dulbecco's Modified Eagle Media (DMEM) (Gibco-BRL) containing 10% Fetal calf serum (FCS) (Sigma) and 1 mg/mL G418 (Gibco-BRL). Compounds were serially diluted 3 folds in DMSO for a twenty-point titration and subsequently transferred to sterile 384-well tissue-culture treated plates (Corning cat #3571). The plates were then seeded with 50 μL of cells at a density of 3.0×10^3 cells/well in DMEM containing 4% FCS (final DMSO concentration at 0.5%). After 3 days incubation at 37° C., cells were analyzed for Renilla Luciferase activity using the EnduRen as substrate (Promega cat #E6485). The EnduRen substrate was diluted in DMEM and then added to the plates to a final concentration of 7.5 μM. The plates were incubated for 2 hrs at 37° C. and then read immediately for 30 seconds with Viewlux Imager (PerkinElmer) using a luminescence program. To assess cytotoxicity of compounds, CC50 values were generated by multiplexing the EnduRen-containing plates with Cell Titer-Blue (Promega, cat # G8082). Cell-Titer Blue (3 μL) was added to each well and incubated for 8 hrs at 37° C. The fluorescence signal from each well was read, with an excitation wavelength at 525/10 nm and an emission wavelength of 598/10 nm, using the Viewlux Imager.
The EC50 values for compounds were calculated by using a four-parameter logistic equation: y=A+((B−A)/(1+((C/x)^D))), where A and B denotes minimal and maximal % inhibition, respectively, C is the EC50, D is the hill slope and x represents compound concentration.
Broadly, the EC50 is the concentration giving half of the maximal effect. `CCOc1ccc2nc(C(F)(F)F)c(O[C@@H]3C[C@H]4C(=O)N[C@]5(C(=O)NS(=O)(=O)C6(C)CC6)C[C@H]5/C=C\CC[C@@H](C)C[C@@H](COC)[C@H](NC(=O)OC(C)(C)C)C(=O)N4C3)nc2c1` [Compound 1050, tert-butyl ((2R,6S,7R,9R,13aS,14aR,16aS,Z)-2-((7-ethoxy-3-(trifluoromethyl)quinoxalin-2-yl)oxy)-7-(methoxymethyl)-9-methyl-14a-(((1-methylcyclopropyl)sulfonyl)carbamoyl)-5,16-dioxo-1,2,3,5,6,7,8,9,10,11,13a,14,14a,15,16,16a-hexadecahydrocyclopropa[e]pyrrolo[1,2-a][1,4]diazacyclopentadecin-6-yl)carbamate]: the EC50 is 0.1 to 0.5 nM.

With `CCOc1ccc2nc(C(F)(F)F)c(O[C@@H]3C[C@H]4C(=O)N[C@]5(C(=O)NS(=O)(=O)C6(C)CC6)C[C@H]5/C=C\CC[C@H](C)C[C@@H](COC)[C@H](NC(=O)OC(C)(C)C(C)(F)F)C(=O)N4C3)nc2c1` [Compound 1051, 3,3-difluoro-2-methylbutan-2-yl ((2R,6S,7R,9S,13aS,14aR,16aS,Z)-2-((7-ethoxy-3-(trifluoromethyl)quinoxalin-2-yl)oxy)-7-(methoxymethyl)-9-methyl-14a-(((1-methylcyclopropyl)sulfonyl)carbamoyl)-5,16-dioxo-1,2,3,5,6,7,8,9,10,11,13a,14,14a,15,16,16a-hexadecahydrocyclopropa[e]pyrrolo[1,2-a][1,4]diazacyclopentadecin-6-yl)carbamate], the 50% effective concentration (EC50) lay within 1.01 to 5 nM.

Take `CCOc1ccc2nc(C(F)(F)F)c(O[C@@H]3C[C@H]4C(=O)N[C@]5(C(=O)NS(=O)(=O)C6(C)CC6)C[C@H]5/C=C\CC[C@@H](C)C[C@@H](COC)[C@H](NC(=O)OC(C)(C)C(C)(F)F)C(=O)N4C3)nc2c1` [Compound 1052, 3,3-difluoro-2-methylbutan-2-yl ((2R,6S,7R,9R,13aS,14aR,16aS,Z)-2-((7-ethoxy-3-(trifluoromethyl)quinoxalin-2-yl)oxy)-7-(methoxymethyl)-9-methyl-14a-(((1-methylcyclopropyl)sulfonyl)carbamoyl)-5,16-dioxo-1,2,3,5,6,7,8,9,10,11,13a,14,14a,15,16,16a-hexadecahydrocyclopropa[e]pyrrolo[1,2-a][1,4]diazacyclopentadecin-6-yl)carbamate]: the EC50 is 0.1 to 0.5 nM.

On to `CCOc1ccc2nc(C(F)(F)F)c(O[C@@H]3C[C@H]4C(=O)N[C@]5(C(=O)NS(=O)(=O)C6(C)CC6)C[C@H]5/C=C\CC[C@H](C)C[C@@H](COC)[C@H](NC(=O)OC(C)(C)C(F)(F)F)C(=O)N4C3)nc2c1` [Compound 1053, 1,1,1-trifluoro-2-methylpropan-2-yl ((2R,6S,7R,9S,13aS,14aR,16aS,Z)-2-((7-ethoxy-3-(trifluoromethyl)quinoxalin-2-yl)oxy)-7-(methoxymethyl)-9-methyl-14a-(((1-methylcyclopropyl)sulfonyl)carbamoyl)-5,16-dioxo-1,2,3,5,6,7,8,9,10,11,13a,14,14a,15,16,16a-hexadecahydrocyclopropa[e]pyrrolo[1,2-a][1,4]diazacyclopentadecin-6-yl)carbamate], for which the EC50 lay within 1.01 to 5 nM.

Turning to `CCOc1ccc2nc(C(F)(F)F)c(O[C@@H]3C[C@H]4C(=O)N[C@]5(C(=O)NS(=O)(=O)C6(C)CC6)C[C@H]5/C=C\CC[C@@H](C)C[C@@H](COC)[C@H](NC(=O)OC(C)(C)C(F)(F)F)C(=O)N4C3)nc2c1` [Compound 1054, 1,1,1-trifluoro-2-methylpropan-2-yl ((2R,6S,7R,9R,13aS,14aR,16aS,Z)-2-((7-ethoxy-3-(trifluoromethyl)quinoxalin-2-yl)oxy)-7-(methoxymethyl)-9-methyl-14a-(((1-methylcyclopropyl)sulfonyl)carbamoyl)-5,16-dioxo-1,2,3,5,6,7,8,9,10,11,13a,14,14a,15,16,16a-hexadecahydrocyclopropa[e]pyrrolo[1,2-a][1,4]diazacyclopentadecin-6-yl)carbamate], the EC50 was in the range of 0.1 to 0.5 nM.

With `COC[C@@H]1C[C@@H](C)CC/C=C\[C@@H]2C[C@@]2(C(=O)NS(=O)(=O)C2(C)CC2)NC(=O)[C@@H]2C[C@@H](Oc3nc4cc(OC(C)C)ccc4nc3C(F)(F)F)CN2C(=O)[C@H]1NC(=O)OC(C)(C)C(C)(F)F` [Compound 1055, 3,3-difluoro-2-methylbutan-2-yl ((2R,6S,7R,9S,13aS,14aR,16aS,Z)-2-((7-isopropoxy-3-(trifluoromethyl)quinoxalin-2-yl)oxy)-7-(methoxymethyl)-9-methyl-14a-(((1-methylcyclopropyl)sulfonyl)carbamoyl)-5,16-dioxo-1,2,3,5,6,7,8,9,10,11,13a,14,14a,15,16,16a-hexadecahydrocyclopropa[e]pyrrolo[1,2-a][1,4]diazacyclopentadecin-6-yl)carbamate], the EC50 was in the range of 1.01 to 5 nM.

Consider `COC[C@@H]1C[C@H](C)CC/C=C\[C@@H]2C[C@@]2(C(=O)NS(=O)(=O)C2(C)CC2)NC(=O)[C@@H]2C[C@@H](Oc3nc4cc(OC(C)C)ccc4nc3C(F)(F)F)CN2C(=O)[C@H]1NC(=O)OC(C)(C)C(C)(F)F` [Compound 1056, 3,3-difluoro-2-methylbutan-2-yl ((2R,6S,7R,9R,13aS,14aR,16aS,Z)-2-((7-isopropoxy-3-(trifluoromethyl)quinoxalin-2-yl)oxy)-7-(methoxymethyl)-9-methyl-14a-(((1-methylcyclopropyl)sulfonyl)carbamoyl)-5,16-dioxo-1,2,3,5,6,7,8,9,10,11,13a,14,14a,15,16,16a-hexadecahydrocyclopropa[e]pyrrolo[1,2-a][1,4]diazacyclopentadecin-6-yl)carbamate], for which the EC50 lay in the range of 0.1 to 0.5 nM.

On to `COC[C@@H]1C[C@@H](C)CC/C=C\[C@@H]2C[C@@]2(C(=O)NS(=O)(=O)C2(C)CC2)NC(=O)[C@@H]2C[C@@H](Oc3nc4cc(OC(C)C)ccc4nc3C(F)(F)F)CN2C(=O)[C@H]1NC(=O)OC(C)(C)C(F)(F)F` [Compound 1057, 1,1,1-trifluoro-2-methylpropan-2-yl ((2R,6S,7R,9S,13aS,14aR,16aS,Z)-2-((7-isopropoxy-3-(trifluoromethyl)quinoxalin-2-yl)oxy)-7-(methoxymethyl)-9-methyl-14a-(((1-methylcyclopropyl)sulfonyl)carbamoyl)-5,16-dioxo-1,2,3,5,6,7,8,9,10,11,13a,14,14a,15,16,16a-hexadecahydrocyclopropa[e]pyrrolo[1,2-a][1,4]diazacyclopentadecin-6-yl)carbamate], for which the EC50 is 5.01 to 35 nM.

Consider `COC[C@@H]1C[C@H](C)CC/C=C\[C@@H]2C[C@@]2(C(=O)NS(=O)(=O)C2(C)CC2)NC(=O)[C@@H]2C[C@@H](Oc3nc4cc(OC(C)C)ccc4nc3C(F)(F)F)CN2C(=O)[C@H]1NC(=O)OC(C)(C)C(F)(F)F` [Compound 1058, 1,1,1-trifluoro-2-methylpropan-2-yl ((2R,6S,7R,9R,13aS,14aR,16aS,Z)-2-((7-isopropoxy-3-(trifluoromethyl)quinoxalin-2-yl)oxy)-7-(methoxymethyl)-9-methyl-14a-(((1-methylcyclopropyl)sulfonyl)carbamoyl)-5,16-dioxo-1,2,3,5,6,7,8,9,10,11,13a,14,14a,15,16,16a-hexadecahydrocyclopropa[e]pyrrolo[1,2-a][1,4]diazacyclopentadecin-6-yl)carbamate], for which the half-maximal effective concentration (EC50) fell in the range of 0.1 to 0.5 nM.

Take `COC[C@@H]1C[C@@H](C)CC/C=C\[C@@H]2C[C@@]2(C(=O)NS(=O)(=O)C2(C)CC2)NC(=O)[C@@H]2C[C@@H](Oc3nc(OC)c4c(OC)cccc4n3)CN2C(=O)[C@H]1NC(=O)OC(C)(C)C(F)(F)F` [Compound 1059, 1,1,1-trifluoro-2-methylpropan-2-yl ((2R,6S,7R,9S,13aS,14aR,16aS,Z)-2-((4,5-dimethoxyquinazolin-2-yl)oxy)-7-(methoxymethyl)-9-methyl-14a-(((1-methylcyclopropyl)sulfonyl)carbamoyl)-5,16-dioxo-1,2,3,5,6,7,8,9,10,11,13a,14,14a,15,16,16a-hexadecahydrocyclopropa[e]pyrrolo[1,2-a][1,4]diazacyclopentadecin-6-yl)carbamate]: the EC50 fell in the range of 35 to 620 nM.
